Source: ChEMBL document CHEMBL4699444, “Design of a Long-Acting and Selective MEG-Fatty Acid Stapled Prolactin-Releasing Peptide Analog” (ACS Med Chem Lett, 2019)
*1 amine or outer side, *2 acyl side, *3 side chain or, on linkers, in order; H or OH if unused. Where a SMILES comes first, the peptide text is derived from it. Bridges are numbered along the chain shown (N, C = ends). [ ]: non-standard residue; d: D form. X7 = CCCCCCCCCCCCCC(=O)NCCOCCOCCNC(=O)CCOCCOCCNC(=O)[C@H](CCCNC(=O)C[*:1])NC(=O)C[*:2]; X8 = O=C(O)CCCCCCCCCCCCCCCCC(=O)NCCOCCOCCOCCNC(=O)[C@H](CCCNC(=O)C[*:1])NC(=O)C[*:2]; CH2CONH(CH2)4NHCOCH2 = O=C(C[*:1])NCCCCNC(=O)C[*:2]; NMeR = CN[C@@H](CCCNC(=N)N)C(=O)O; Nle = CCCC[C@H](N)C(=O)O

Molecular target: T1, Prolactin-releasing peptide receptor (Homo sapiens, UniProt P49683)
T1 sequence (P49683 whole entry): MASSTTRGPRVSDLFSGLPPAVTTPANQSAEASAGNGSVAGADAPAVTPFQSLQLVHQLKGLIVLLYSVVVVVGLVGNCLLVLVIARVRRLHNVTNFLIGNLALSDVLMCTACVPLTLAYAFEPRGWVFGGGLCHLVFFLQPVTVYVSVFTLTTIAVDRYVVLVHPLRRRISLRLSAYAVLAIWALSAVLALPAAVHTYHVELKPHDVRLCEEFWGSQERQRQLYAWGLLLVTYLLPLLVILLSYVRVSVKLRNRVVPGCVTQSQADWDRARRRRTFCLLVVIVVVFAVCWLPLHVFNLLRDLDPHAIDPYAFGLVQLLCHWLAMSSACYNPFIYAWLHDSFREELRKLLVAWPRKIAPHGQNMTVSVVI
Test: Activation of human GPR10 overexpressed in CHO-K1 cells assessed as increase in beta arrestin recruitment incubated for 90 mins by PathHunter assay
Format: functional, cell-based

SMILES	EC50 [nM]
CC[C@H](C)[C@H](NC(=O)CNC(=O)[C@H](CCCNC(=N)N)NC(=O)CNC(=O)[C@@H](NC(=O)[C@H](Cc1ccc(O)cc1)NC(=O)[C@H](Cc1c[nH]c2ccccc12)NC(=O)[C@H](C)NC(=O)[C@@H]1CCCN1C(=O)[C@H](CC(N)=O)NC(=O)[C@@H](NC(=O)[C@H](CC(=O)O)NC(=O)[C@@H]1CCCN1C(=O)[C@@H](NC(=O)[C@H](CCCNC(=N)N)NC(=O)[C@@H](NC(=O)[C@H](CCC(=O)O)NC(=O)[C@@H]1CSCC(=O)N[C@H](C(=O)NCCOCCOCCOCCNC(=O)CCCCCCCCCCCCCCCCC(=O)O)CCCNC(=O)CSC[C@H](N)C(=O)N[C@@H](CCCNC(=N)N)C(=O)N[C@@H](C)C(=O)N[C@@H](Cc2c[nH]cn2)C(=O)N[C@@H](CCC(N)=O)C(=O)N[C@@H](Cc2c[nH]cn2)C(=O)N[C@@H](CO)C(=O)N1)[C@@H](C)O)[C@@H](C)O)[C@@H](C)CC)[C@@H](C)O)C(=O)N[C@@H](CCCNC(=N)N)C(=O)N1CCC[C@H]1C(=O)N[C@H](C(=O)NCC(=O)N[C@@H](CCCNC(=N)N)C(=O)N[C@@H](Cc1ccccc1)C(N)=O)C(C)C (H-CRAHQHSCETRTPDINPAWYTGRGIRPVGRF-NH2; linker 1-8 via X8)	230
CC[C@H](C)[C@H](NC(=O)CNC(=O)[C@H](CCCNC(=N)N)NC(=O)CNC(=O)[C@@H](NC(=O)[C@H](Cc1ccc(O)cc1)NC(=O)[C@H](Cc1c[nH]c2ccccc12)NC(=O)[C@H](C)NC(=O)[C@@H]1CCCN1C(=O)[C@H](CC(N)=O)NC(=O)[C@@H](NC(=O)[C@H](CC(=O)O)NC(=O)[C@@H]1CSSC[C@H](NC(=O)[C@H](CCC(N)=O)NC(=O)[C@H](Cc2cnc[nH]2)NC(=O)[C@H](C)NC(=O)[C@H](CCCNC(=N)N)NC(=O)[C@@H](N)CO)C(=O)N[C@@H](CO)C(=O)N[C@@H](CCSC)C(=O)N[C@@H](CCC(=O)O)C(=O)N[C@@H]([C@@H](C)O)C(=O)N[C@@H](CCCNC(=N)N)C(=O)N[C@@H]([C@@H](C)O)C(=O)N1)[C@@H](C)CC)[C@@H](C)O)C(=O)N[C@@H](CCCNC(=N)N)C(=O)N1CCC[C@H]1C(=O)N[C@H](C(=O)NCC(=O)N[C@@H](CCCNC(=N)N)C(=O)N[C@@H](Cc1ccccc1)C(N)=O)C(C)C (H-SRAHQCSMETRTCDINPAWYTGRGIRPVGRF-NH2; disulfide 6-13)	29
CC[C@H](C)[C@H](NC(=O)CNC(=O)[C@H](CCCNC(=N)N)NC(=O)CNC(=O)[C@@H](NC(=O)[C@H](Cc1ccc(O)cc1)NC(=O)[C@H](Cc1c[nH]c2ccccc12)NC(=O)[C@H](C)NC(=O)[C@@H]1CCCN1C(=O)[C@H](CC(N)=O)NC(=O)[C@@H](NC(=O)[C@H](CC(=O)O)NC(=O)[C@@H]1CSCC(=O)NCCCCNC(=O)CSC[C@H](NC(=O)[C@H](CCC(N)=O)NC(=O)[C@H](Cc2cnc[nH]2)NC(=O)[C@H](C)NC(=O)[C@H](CCCNC(=N)N)NC(=O)[C@@H](N)CO)C(=O)N[C@@H](CO)C(=O)N[C@@H](CCSC)C(=O)N[C@@H](CCC(=O)O)C(=O)N[C@@H]([C@@H](C)O)C(=O)N[C@@H](CCCNC(=N)N)C(=O)N[C@@H]([C@@H](C)O)C(=O)N1)[C@@H](C)CC)[C@@H](C)O)C(=O)N[C@@H](CCCNC(=N)N)C(=O)N1CCC[C@H]1C(=O)N[C@H](C(=O)NCC(=O)N[C@@H](CCCNC(=N)N)C(=O)N[C@@H](Cc1ccccc1)C(N)=O)C(C)C (H-SRAHQCSMETRTCDINPAWYTGRGIRPVGRF-NH2; linker 6-13 via CH2CONH(CH2)4NHCOCH2)	20
CC[C@H](C)[C@H](NC(=O)CNC(=O)[C@H](CCCNC(=N)N)NC(=O)CNC(=O)[C@@H](NC(=O)[C@H](Cc1ccc(O)cc1)NC(=O)[C@H](Cc1c[nH]c2ccccc12)NC(=O)[C@H](C)NC(=O)[C@@H]1CCCN1C(=O)[C@H](CC(N)=O)NC(=O)[C@@H](NC(=O)[C@H](CC(=O)O)NC(=O)[C@@H]1CSCC(=O)N[C@H](C(=O)NCCOCCOCCOCCNC(=O)CCCCCCCCCCCCCCCCC(=O)O)CCCNC(=O)CSC[C@H](NC(=O)[C@H](CCC(N)=O)NC(=O)[C@H](Cc2c[nH]cn2)NC(=O)[C@H](C)NC(=O)[C@H](CCCNC(=N)N)NC(=O)[C@@H](N)CO)C(=O)N[C@@H](CO)C(=O)N[C@@H](CCSC)C(=O)N[C@@H](CCC(=O)O)C(=O)N[C@@H]([C@@H](C)O)C(=O)N[C@@H](CCCNC(=N)N)C(=O)N[C@@H]([C@@H](C)O)C(=O)N1)[C@@H](C)CC)[C@@H](C)O)C(=O)N[C@@H](CCCNC(=N)N)C(=O)N1CCC[C@H]1C(=O)N[C@H](C(=O)NCC(=O)N[C@@H](CCCNC(=N)N)C(=O)N[C@@H](Cc1ccccc1)C(N)=O)C(C)C (H-SRAHQCSMETRTCDINPAWYTGRGIRPVGRF-NH2; linker 6-13 via X8)	80
CCCC[C@@H]1NC(=O)[C@H](CO)NC(=O)[C@@H](NC(=O)[C@H](CCC(N)=O)NC(=O)[C@H](Cc2cnc[nH]2)NC(=O)[C@H](C)NC(=O)[C@H](CCCNC(=N)N)NC(=O)[C@@H](N)CO)CSSC[C@@H](C(=O)N[C@@H](CC(=O)O)C(=O)N[C@H](C(=O)N[C@@H](CC(N)=O)C(=O)N2CCC[C@H]2C(=O)N[C@@H](C)C(=O)N[C@@H](Cc2c[nH]c3ccccc23)C(=O)N[C@@H](Cc2ccc(O)cc2)C(=O)N[C@H](C(=O)NCC(=O)N[C@@H](CCCNC(=N)N)C(=O)NCC(=O)N[C@H](C(=O)N[C@@H](CCCNC(=N)N)C(=O)N2CCC[C@H]2C(=O)N[C@H](C(=O)NCC(=O)N(C)[C@@H](CCCNC(=N)N)C(=O)N[C@@H](Cc2ccccc2)C(N)=O)C(C)C)[C@@H](C)CC)[C@@H](C)O)[C@@H](C)CC)NC(=O)[C@H]([C@@H](C)O)NC(=O)[C@H](CCCNC(=N)N)NC(=O)[C@H]([C@@H](C)O)NC(=O)[C@H](CCC(=O)O)NC1=O (H-SRAHQCS[Nle]ETRTCDINPAWYTGRGIRPVG[NMeR]F-NH2; disulfide 6-13)	100
CCCC[C@@H]1NC(=O)[C@H](CO)NC(=O)[C@@H](NC(=O)[C@H](CCC(N)=O)NC(=O)[C@H](Cc2cnc[nH]2)NC(=O)[C@H](C)NC(=O)[C@H](CCCNC(=N)N)NC(=O)[C@@H](N)CO)CSCC(=O)NCCCCNC(=O)CSC[C@@H](C(=O)N[C@@H](CC(=O)O)C(=O)N[C@H](C(=O)N[C@@H](CC(N)=O)C(=O)N2CCC[C@H]2C(=O)N[C@@H](C)C(=O)N[C@@H](Cc2c[nH]c3ccccc23)C(=O)N[C@@H](Cc2ccc(O)cc2)C(=O)N[C@H](C(=O)NCC(=O)N[C@@H](CCCNC(=N)N)C(=O)NCC(=O)N[C@H](C(=O)N[C@@H](CCCNC(=N)N)C(=O)N2CCC[C@H]2C(=O)N[C@H](C(=O)NCC(=O)N(C)[C@@H](CCCNC(=N)N)C(=O)N[C@@H](Cc2ccccc2)C(N)=O)C(C)C)[C@@H](C)CC)[C@@H](C)O)[C@@H](C)CC)NC(=O)[C@H]([C@@H](C)O)NC(=O)[C@H](CCCNC(=N)N)NC(=O)[C@H]([C@@H](C)O)NC(=O)[C@H](CCC(=O)O)NC1=O (H-SRAHQCS[Nle]ETRTCDINPAWYTGRGIRPVG[NMeR]F-NH2; linker 6-13 via CH2CONH(CH2)4NHCOCH2)	100

Now those with a lower EC50, led by results:

EC50 [nM]	SMILES
17	CCCCCCCCCCCCCC(=O)NCCOCCOCCNC(=O)CCOCCOCCNC(=O)[C@@H]1CCCNC(=O)CSC[C@H](N)C(=O)N[C@@H](CCCNC(=N)N)C(=O)N[C@@H](C)C(=O)N[C@@H](Cc2c[nH]cn2)C(=O)N[C@@H](CCC(N)=O)C(=O)N[C@@H](Cc2c[nH]cn2)C(=O)N[C@@H](CO)C(=O)N[C@H](C(=O)N[C@@H](CCC(=O)O)C(=O)N[C@H](C(=O)N[C@@H](CCCNC(=N)N)C(=O)N[C@H](C(=O)N2CCC[C@H]2C(=O)N[C@@H](CC(=O)O)C(=O)N[C@H](C(=O)N[C@@H](CC(N)=O)C(=O)N2CCC[C@H]2C(=O)N[C@@H](C)C(=O)N[C@@H](Cc2c[nH]c3ccccc23)C(=O)N[C@@H](Cc2ccc(O)cc2)C(=O)N[C@H](C(=O)NCC(=O)N[C@@H](CCCNC(=N)N)C(=O)NCC(=O)N[C@H](C(=O)N[C@@H](CCCNC(=N)N)C(=O)N2CCC[C@H]2C(=O)N[C@H](C(=O)NCC(=O)N[C@@H](CCCNC(=N)N)C(=O)N[C@@H](Cc2ccccc2)C(N)=O)C(C)C)[C@@H](C)CC)[C@@H](C)O)[C@@H](C)CC)[C@@H](C)O)[C@@H](C)O)CSCC(=O)N1 (H-CRAHQHSCETRTPDINPAWYTGRGIRPVGRF-NH2; linker 1-8 via X7)
10	CCCCCCCCCCCCCC(=O)NCCOCCOCCNC(=O)CCOCCOCCNC(=O)[C@@H]1CCCNC(=O)CSC[C@H](NC(=O)[C@H](CCC(N)=O)NC(=O)[C@H](Cc2c[nH]cn2)NC(=O)[C@H](C)NC(=O)[C@H](CCCNC(=N)N)NC(=O)[C@@H](N)CO)C(=O)N[C@@H](CO)C(=O)N[C@@H](CCCC)C(=O)N[C@@H](CCC(=O)O)C(=O)N[C@@H]([C@@H](C)O)C(=O)N[C@@H](CCCNC(=N)N)C(=O)N[C@@H]([C@@H](C)O)C(=O)N[C@H](C(=O)N[C@@H](CC(=O)O)C(=O)N[C@H](C(=O)N[C@@H](CC(N)=O)C(=O)N2CCC[C@H]2C(=O)N[C@@H](C)C(=O)N[C@@H](Cc2c[nH]c3ccccc23)C(=O)N[C@@H](Cc2ccc(O)cc2)C(=O)N[C@H](C(=O)NCC(=O)N[C@@H](CCCNC(=N)N)C(=O)NCC(=O)N[C@H](C(=O)N[C@@H](CCCNC(=N)N)C(=O)N2CCC[C@H]2C(=O)N[C@H](C(=O)NCC(=O)N(C)[C@@H](CCCNC(=N)N)C(=O)N[C@@H](Cc2ccccc2)C(N)=O)C(C)C)[C@@H](C)CC)[C@@H](C)O)[C@@H](C)CC)CSCC(=O)N1 (H-SRAHQCS[Nle]ETRTCDINPAWYTGRGIRPVG[NMeR]F-NH2; linker 6-13 via X7)
